The values below come from US9518018B2, “3-alkoxy, thioalkyl and amino-4-amino-6-(substituted)picolinates and their use as herbicides” (Dow AgroSciences LLC, priority 2011, dated 2016).

Common to all, as to assay: Post-Emergent Test I herbicidal activity
Holding throughout (type): in vivo

The subject of experiment [1] is ECHCG: barnyardgrass (Echinochloa crus-galli). The settings on record: post-emergence, 336 h, read-out: Visual Growth Reduction (%)-14 Days after Application ECHCG; for pest or weed control at 140 g/ha: Table 3, 140 g ai/ha; for pest or weed control at 280 g/ha: Table 3, 280 g ai/ha; for pest or weed control at 70 g/ha: Table 3, 70 g ai/ha. Here is the method: (§1) Seeds or nutlets of the desired test plant species were planted in Sun Gro Metro-Mix® 360 planting mixture, which typically has a pH of 6.0 to 6.8 and an organic matter content of about 30 percent, in plastic pots with a surface area of 64 square centimeters. When required to ensure good germination and healthy plants, a fungicide treatment and/or other chemical or physical treatment was applied. The plants were grown for 7-21 d in a greenhouse with an approximate 15 h photoperiod which was maintained at about 23-29° C. during the day and 22-28° C. during the night. Nutrients and water were added on a regular basis and supplemental lighting was provided with overhead metal halide 1000-Watt lamps as necessary. The plants were employed for testing when they reached the first or second true leaf stage.
(§2) A weighed amount, determined by the highest rate to be tested, of each test compound was placed in a 25 mL glass vial and was dissolved in 4 mL of a 97:3 v/v mixture of acetone and DMSO to obtain concentrated stock solutions. […] The concentrated stock solutions obtained were diluted with 20 mL of an aqueous mixture containing acetone, water, isopropyl alcohol, DMSO, Atplus 411F crop oil concentrate, and Triton® X-155 surfactant in a 48.5:39:10:1.5:1.0:0.02 v/v ratio to obtain spray solutions containing the highest application rates. Additional application rates were obtained by serial dilution of 12 mL of the high rate solution into a solution containing 2 mL of 97:3 v/v mixture of acetone and DMSO and 10 mL of an aqueous mixture containing acetone, water, isopropyl alcohol, DMSO, Atplus 411F crop oil concentrate, and Triton X-155 surfactant in a 48.5:39:10:1.5:1.0:0.02 v/v ratio to obtain ½×, ¼×, ⅛× and 1/16× rates of the high rate. Compound requirements are based upon a 12 mL application volume at a rate of 187 liters per hectare (L/ha). Formulated compounds were applied to the plant material with an overhead Mandel track sprayer equipped with 8002E nozzles calibrated to deliver 187 L/ha over an application area of 0.503 square meters at a spray height of 18 inches (43 cm) above the average plant canopy height. Control plants were sprayed in the same manner with the solvent blank.
(§3) The treated plants and control plants were placed in a greenhouse as described above and watered by subirrigation to prevent wash-off of the test compounds. After 14 d, the condition of the test plants as compared with that of the untreated plants was determined visually and scored on a scale of 0 to 100 percent where 0 corresponds to no injury and 100 corresponds to complete kill.
(§4) By applying the well-accepted probit analysis as described by J. Berkson in Journal of the […], 48, 565 (1953) and by D. Finney in “Probit Analysis” Cambridge University Press (1952), the above data can be used to calculate GR20, GR50 and GR80 values, which are defined as growth reduction factors that correspond to the effective dose of herbicide required to kill or control 20 percent, 50 percent or 80 percent, respectively, of a target plant.

For experiment [2], the system named is ORYSA: rice (Oryza sativa). The note with it: post-emergence, 336 h, read-out: Visual Growth Reduction (%)-14 Days after Application ORYSA; for pest or weed control at 140 g/ha: Table 3, 140 g ai/ha; for pest or weed control at 280 g/ha: Table 3, 280 g ai/ha; for pest or weed control at 70 g/ha: Table 3, 70 g ai/ha. On the procedure:
as §1, §2, §3, §4

For experiment [3], the system named is CYPES: yellow nutsedge (Cyperus esculentus). The note with it: post-emergence, 336 h, read-out: Visual Growth Reduction (%)-14 Days after Application CYPES; for pest or weed control at 140 g/ha: Table 3, 140 g ai/ha; for pest or weed control at 280 g/ha: Table 3, 280 g ai/ha; for pest or weed control at 70 g/ha: Table 3, 70 g ai/ha. On the procedure: as §1, §2, §3, §4

For experiment [4], the system named is ABUTH: velvetleaf (Abutilon theophrasti). The note with it: Abutilon theophrasti, post-emergence, 336 h, read-out: Visual Growth Reduction (%)-14 Days after Application ABUTH; for pest or weed control at 140 g/ha: Table 3, 140 g ai/ha; for pest or weed control at 280 g/ha: Table 3, 280 g ai/ha; for pest or weed control at 70 g/ha: Table 3, 70 g ai/ha. On the procedure:
as §1, §2, §3, §4

Experiment [5] has as its system CHEAL: lambsquarters (Chenopodium album). The settings on record: Chenopodium album, post-emergence, 336 h, read-out: Visual Growth Reduction (%)-14 Days after Application CHEAL; for pest or weed control at 140 g/ha: Table 3, 140 g ai/ha; for pest or weed control at 280 g/ha: Table 3, 280 g ai/ha; for pest or weed control at 70 g/ha: Table 3, 70 g ai/ha. Here is the method:
as §1, §2, §3, §4

A further experiment concerns ZEAMX: corn (Zea mays). The settings on record: Zea mays, post-emergence, 336 h, read-out: Visual Growth Reduction (%)-14 Days after Application ZEAMX; for pest or weed control at 140 g/ha: Table 3, 140 g ai/ha; for pest or weed control at 280 g/ha: Table 3, 280 g ai/ha; for pest or weed control at 70 g/ha: Table 3, 70 g ai/ha. Here is the method:
as §1, §2, §3, §4

Experiment [6] has as its system EPHHL: wild poinsettia (Euphorbia heterophylla). The note with it: post-emergence, 336 h, read-out: Visual Growth Reduction (%)-14 Days after Application EPHHL; for pest or weed control at 140 g/ha: Table 3, 140 g ai/ha; for pest or weed control at 280 g/ha: Table 3, 280 g ai/ha; for pest or weed control at 70 g/ha: Table 3, 70 g ai/ha. Here is the method: as §1, §2, §3, §4

In the case of `COC(=O)c1nc(C(C)(F)F)cc(N)c1OC` [Compound 81, methyl 4-amino-6-(1,1-difluoroethyl)-3-methoxypicolinate], the pest or weed control at 140 g/ha in experiment [1] turned out to be 0%; in experiment [2] it was 0%; in experiment [3], 0%; in experiment [4] it was 10%; in experiment [5] it was 80%; in the experiment with ZEAMX: corn (Zea mays), 0%. For the same compound, the pest or weed control at 140 g/ha in experiment [6] is 60%.

In the case of `C=Cc1nc(C(=O)OC)c(OC)c(N)c1F` [Compound 12, methyl 4-amino-5-fluoro-3-methoxy-6-vinylpicolinate], the pest or weed control at 280 g/ha is 0% in experiment [1]; 0% in experiment [2]; 0% in experiment [3]; 0% in experiment [4]; 70% in experiment [5]; 0% in the experiment with ZEAMX: corn (Zea mays). Besides, the pest or weed control at 280 g/ha in experiment [6] was 0%.

For `C#Cc1ccc(-c2nc(C(=O)OC)c(OC)c(N)c2F)cc1` [Compound 30, methyl 4-amino-6-(4-ethynylphenyl)-5-fluoro-3-methoxypicolinate], the pest or weed control at 140 g/ha in experiment [1] is 0%; in experiment [2] it was 0%; in experiment [3], 100%; in experiment [4], 50%; in experiment [5], 100%; with ZEAMX: corn (Zea mays), 70%. The pest or weed control at 140 g/ha in experiment [6] worked out at 100%.

`COC(=O)c1nc(-c2ccc(Br)c(F)c2F)c(F)c(N)c1OC` [Compound 19, methyl 4-amino-6-(4-bromo-2,3-difluorophenyl)-5-fluoro-3-methoxypicolinate]: the pest or weed control at 70 g/ha in experiment [1] was found to be 75%; in experiment [2], 0%; in experiment [3] it was 90%; in experiment [4], 85%; in experiment [5], 100%; in the experiment on ZEAMX: corn (Zea mays), 70%. Further, the pest or weed control at 70 g/ha in experiment [6] came out at 100%.

With `COC(=O)c1nc(-c2ccc3c(c2F)OCO3)c(F)c(N)c1OC` [Compound 42], the pest or weed control at 140 g/ha was found to be 0% in experiment [1]; 0% in experiment [2]; 10% in experiment [3]; 60% in experiment [4]; 90% in experiment [5]; 75% in the experiment with ZEAMX: corn (Zea mays). Also, the pest or weed control at 140 g/ha in experiment [6] is 100%.

In the case of `COC(=O)c1nc(C(C)F)cc(N)c1OC` (centres unmarked) [Compound 83, methyl 4-amino-6-(1-fluoroethyl)-3-methoxypicolinate], the pest or weed control at 140 g/ha (in experiment [1]; in experiment [2]; in experiment [3]; in experiment [4]; in experiment [5]; in the experiment with ZEAMX: corn (Zea mays)) was 0% in each case. Besides, the pest or weed control at 140 g/ha in experiment [6] turned out to be 0%.

`COc1c(C(=O)O)nc(-c2ccc(Cl)c(Cl)c2)c(F)c1N` [Compound 79]: the pest or weed control at 70 g/ha turned out to be 70% in experiment [1]; 15% in experiment [2]; 90% in experiment [3]; 80% in experiment [4]; 100% in experiment [5]; 80% in the experiment on ZEAMX: corn (Zea mays). Further, the pest or weed control at 70 g/ha in experiment [6] came out at 95%.

Turning to `CCOC(=O)c1nc(-c2ccc(Cl)c(OC)c2F)cc(N)c1OC(F)F` [Compound 8, ethyl 4-amino-6-(4-chloro-2-fluoro-3-methoxyphenyl)-3-(difluoromethoxy)picolinate], the pest or weed control at 280 g/ha in experiment [1] is 0%; in experiment [2], 0%; in experiment [3], 0%; in experiment [4], 25%; in experiment [5] it was 30%; in the experiment with ZEAMX: corn (Zea mays), 0%. Further, the pest or weed control at 280 g/ha in experiment [6] is 90%.

On to `COc1c(N)cc(C(C)F)nc1C(=O)O` (centres unmarked) [Compound 84, 4-amino-6-(1-fluoroethyl)-3-methoxypicolinic acid], for which the pest or weed control at 140 g/ha came out at 0% in experiment [1]; 0% in experiment [2]; 0% in experiment [3]; 10% in experiment [4]; 30% in experiment [5]; 0% in the experiment on ZEAMX: corn (Zea mays). Also, the pest or weed control at 140 g/ha in experiment [6] came to 0%.

In the case of `COc1c(C(=O)O)nc(-c2ccc(C(F)(F)F)c(F)c2)c(F)c1N` [Compound 11, 4-amino-5-fluoro-6-(3-fluoro-4-(trifluoromethyl)phenyl)-3-methoxypicolinic acid], the pest or weed control at 140 g/ha came out at 100% in experiment [1]; 12% in experiment [2]; 50% in experiment [3]; 100% in experiment [4]; 100% in experiment [5]; 80% in the experiment with ZEAMX: corn (Zea mays). Moreover, the pest or weed control at 140 g/ha in experiment [6] was found to be 100%.

Regarding `CCOC(=O)c1nc(-c2ccc(Cl)cc2F)cc(N)c1SCC(F)(F)F` [Compound 89, Ethyl 4-amino-6-(4-chloro-2-fluorophenyl)-3-((2,2,2-trifluoroethyl)thio)picolinate], the pest or weed control at 140 g/ha in experiment [1] was determined as 0%; in experiment [2], 0%; in experiment [3] it was 0%; in experiment [4], 30%; in experiment [5], 70%; in the experiment with ZEAMX: corn (Zea mays), 0%. Besides, in experiment [6], the pest or weed control at 140 g/ha amounted to 90%.
